# Source: patent publication US20090306200A1, “Prophylactic or Therapeutic Agent for Nocturnal Conduct Disorder Associated With Dementia” (Takeda Pharmaceutical Company Limited, priority 2005, published 2009)
# Marks after values point to notes of the source that are not given here.
# System: SAMP8/Ta Slc mice
# Test: Measurement of rotational motor activity in mouse (turning wheel; motor activity in light period)
# Assay type: in vivo
# Conditions: for Motor Activity in light period, % of Pre: Pre value = 100%; for Motor Activity in light period, %: n = 9
# Method: Animals: SAMP8/Ta Slc mice (16 weeks old), and SAMR1/Ta Slc mice (16 weeks old) as control mouse were used. After breeding in a rearing room, they were used after the age of 6-month-old to 8-month-old. A sole isolation breeding was conducted during the breeding. AB system of Neuroscience Co. was used for measurement. The mice were put in separate cages, and the turning wheel's rotation number for every minute by mouse was measured, and the data was analyzed as a motor activity for every hour. A turning wheel was equipped in the cage for measurement. The number in which the mouse rotated the turning wheel was automatically counted every minute with AB system (Neuroscience Co.), and recorded with time course as an amount of movement (motor activity). Using the total value of turning wheel's rotation number in habituation stage, each group was evenly grouped. Compound A was dissolved in water for injection, and water for injection was used as a vehicle. The solution and vehicle were administered as drinking water, respectively. The drinking water was replaced with new one every week. Pre: Habituation period (1 week) First week: Vehicle/Compound A 0.1-0.2 mg/kg/day Second week: Vehicle/Compound A 0.1-0.2 mg/kg/day Third week: Vehicle/Compound A 1-2 mg/kg/day Fourth week: Vehicle/Compound A 1-2 mg/kg/day Fifth week: Vehicle/Compound A 1-2 mg/kg/day The number of rotational movement which was automatically counted every minute by AB system (Neuroscience Co.) was tallied for every hour. Calculation was carried out according to the following sequences. (i) By calculating according to the following mathematical formula: (rotational motor activity in light period of a day)/(rotational motor activity in light period of a day+rotational motor activity in dark period of a day)×100, motor activity % in light period was determined. (ii) The mean value of motor activity % in light period was calculated for every week, and was made a representative value for every week. (iii) In addition, in case that the value of Pre was made 100%, rate of change of motor activity % in light period after administration was shown as % of Pre value. Statistical analysis was performed with t-test or Paired t-test for vehicle administration group and compound A administration group of SAMP8.
# [1] = 1st week, Compound A 0.1-0.2 mg/kg/day in drinking water
# [2] = 2nd week, Compound A 0.1-0.2 mg/kg/day in drinking water
# [3] = 3rd week, Compound A 1-2 mg/kg/day in drinking water
# [4] = 4th week, Compound A 1-2 mg/kg/day in drinking water
# [5] = 5th week, Compound A 1-2 mg/kg/day in drinking water
compound,measurement,setting,value
"CCC(=O)NCC[C@@H]1CCc2ccc3c(c21)CCO3 [Compound A, (S)—N-[2-(1,6,7,8-tetrahydro-2H-indeno[5,4-b]furan-8-yl)ethyl]propionamide]",abnormal behavior in light period of SAMP8,0.1-0.2 then 1-2 mg/kg/day in drinking water,inhibit dose-dependently
same,"Motor Activity in light period, % of Pre",[1],97.67 % of Pre
same,"Motor Activity in light period, %",[1],30.95%
same,"Motor Activity in light period, % of Pre",[2],79.60 % of Pre
same,"Motor Activity in light period, %",[2],24.58%
same,"Motor Activity in light period, % of Pre",[3],70.25** % of Pre
same,"Motor Activity in light period, %",[3],22.82* %
same,"Motor Activity in light period, % of Pre",[4],74.77* % of Pre
same,"Motor Activity in light period, %",[4],23.75* %
same,"Motor Activity in light period, % of Pre",[5],71.64* % of Pre
same,"Motor Activity in light period, %",[5],21.18** %
same,change of the motor activity % in light period and the % of Pre value compared to the vehicle administered group,"first and second week, 0.1-0.2 mg/kg/day in drinking water",there was not observed a change
same,motor activity % in light period and the % of Pre value compared to the vehicle-administered group,"third to fifth week, 1-2 mg/kg/day in drinking water",decreased
